Patent US6992079B2, “Substituted 11-phenyl-dibenzazepine compounds useful for the treatment or prevention of diseases characterized by abnormal cell proliferation” (President Fellows of Harvard College, priority 1997, dated 2006)
Read-outs that look alike come from different tables or passages of the source.

How the values were obtained:
[1] = tested on: H460 large cell lung carcinoma; assay: Mouse xenograft tumor growth; format: in vivo, CD-1 nude mice
[2] = tested on: A2058 metastatic melanoma; assay: Mouse xenograft tumor growth; format: in vivo, CD-1 nude mice
Protocol: NCI-A2058 human melanoma cell line was grown as monolayer culture in Minimum essential medium (D-MEM) supplemented with 10% fetal bovine serum (FBS), 0.1 mM non-essential amino acid, 1.0 mM sodium pyruvate, 100U/ml penicillin, 100 μg/ml streptomycin and 0.25 μg/ml amphotericin B and L-alanyl-1-glutamine (2 mM) at 37° C. in an atmosphere of 5% CO2 in air. The tumor cells were routinely subcultured twice weekly by trypsin-EDTA treatment. The cells were harvested from subconfluent logarithmically growing culture by treatment with typsin-EDTA and counted for tumor inoculation.
An acclimation period of at least 7 days were allowed between animal receipt and commence of tumor inoculation. When the female CD-1 nude mice were more than 6-7 weeks of age (20-25 g), each mouse was subcutaneously injected with 5.0×10^6 NCI-A2058 human melanoma cells in 0.1 ml of PBS solution at the right flank of the mice to induce tumor growth.

[3] = tested on: CCRF-CEM; assay: In-Vitro Testing SRB panel: Leukemia; format: cell-based; conditions: 48 h
[4] = tested on: K-562; assay: In-Vitro Testing SRB panel: Leukemia; format: cell-based
[5] = tested on: ROP-62; format: cell-based; conditions: 48 h
[6] = tested on: NCI-H460; format: cell-based; conditions: NCI-H460, 48 h
[7] = tested on: NCI-H522; format: cell-based; conditions: NCI-H522, 48 h
[8] = tested on: SW-620; assay: In-Vitro Testing SRB panel: Colon Cancer; format: cell-based; conditions: SW-620, 48 h
[9] = tested on: SNB-19; assay: In-Vitro Testing SRB panel: CNS Cancer; format: cell-based; conditions: SNB-19, 48 h
[10] = tested on: OVCAR-4; assay: In-Vitro Testing SRB panel: Ovarian Cancer; format: cell-based; conditions: OVCAR-4, 48 h
[11] = tested on: ACHN; assay: In-Vitro Testing SRB panel: Renal Cancer; format: cell-based; conditions: 48 h
[12] = tested on: CARI-1; assay: In-Vitro Testing SRB panel: Renal Cancer; format: cell-based; conditions: 48 h
[13] = tested on: PC-3; assay: In-Vitro Testing SRB panel: Prostate Cancer; format: cell-based; conditions: PC-3, 48 h
[14] = tested on: MC-F7; assay: In-Vitro Testing SRB panel: Breast Cancer; format: cell-based
[15] = tested on: BT-549; assay: In-Vitro Testing SRB panel: Breast Cancer; format: cell-based; conditions: BT-549, 48 h
[16] = tested on: T-47D; assay: In-Vitro Testing SRB panel: Breast Cancer; format: cell-based; conditions: 48 h
[17] = Homo sapiens, read-out: LC50 (the source's name)

O=C(c1ccc([N+](=O)[O-])cc1)N1Cc2ccccc2C(c2ccccc2Cl)c2ccccc21 (stereo not drawn) [Compound 28, N-(4′-Nitrobenzoyl)-11-(2′-chlorophenyl)-5,6-dihydro-11H-dibenz[b,e]azepine]
tumor growth [1]: significantly inhibited tumor growth | tumor growth [2]: significantly inhibited tumor growth | TGI [3]: 2.99E−06 Molar | GI50 ([3]; Homo sapiens): 0.0909 µM | CC50 [3, 17]: > 100 µM | Percent Growth ([3]; log10 conc −4.0 Molar): −3% | Percent Growth ([3]; log10 conc −5.0 Molar): −11% | Percent Growth ([3]; log10 conc −6.0 Molar): 10% | Percent Growth ([3]; log10 conc −7.0 Molar): 49% | Percent Growth ([3]; log10 conc −8.0 Molar): 66% | GI50 ([4]; Homo sapiens, K562, 48 h): 0.394 µM | CC50 ([4]; Homo sapiens, K562, K-562, 48 h, read-out: LC50 (the source's name)): > 100 µM | TGI ([4]; K-562, 48 h): >1.00E−04 Molar | Percent Growth ([4]; K-562, log10 conc −4.0 Molar, 48 h): 26% | Percent Growth ([4]; K-562, log10 conc −5.0 Molar, 48 h): 25% | Percent Growth ([4]; K-562, log10 conc −6.0 Molar, 48 h): 38% | Percent Growth ([4]; K-562, log10 conc −7.0 Molar, 48 h): 68% | Percent Growth ([4]; K-562, log10 conc −8.0 Molar, 48 h): 82% | GI50 ([5]; Homo sapiens): 13.1 µM | CC50 ([5]; Homo sapiens, ROP-62, read-out: LC50 (the source's name)): > 100 µM | TGI ([5]; ROP-62): >1.00E−04 Molar | Percent Growth ([5]; ROP-62, log10 conc −4.0 Molar): 38% | Percent Growth ([5]; ROP-62, log10 conc −5.0 Molar): 52% | Percent Growth ([5]; ROP-62, log10 conc −6.0 Molar): 60% | Percent Growth ([5]; ROP-62, log10 conc −7.0 Molar): 89% | Percent Growth ([5]; ROP-62, log10 conc −8.0 Molar): 91% | GI50 ([6]; Homo sapiens): 3.65 µM | CC50 [6, 17]: > 100 µM | TGI [6]: >1.00E−04 Molar | Percent Growth ([6]; log10 conc −4.0 Molar): 15% | Percent Growth ([6]; log10 conc −5.0 Molar): 12% | Percent Growth ([6]; log10 conc −6.0 Molar): 18% | Percent Growth ([6]; log10 conc −7.0 Molar): 92% | Percent Growth ([6]; log10 conc −8.0 Molar): 97% | GI50 ([7]; Homo sapiens): 0.337 µM | CC50 [7, 17]: > 100 µM | TGI [7]: >2.72E−05 Molar | Percent Growth ([7]; log10 conc −4.0 Molar): −16% | Percent Growth ([7]; log10 conc −5.0 Molar): 12% | Percent Growth ([7]; log10 conc −6.0 Molar): 13% | Percent Growth ([7]; log10 conc −7.0 Molar): 91% | Percent Growth ([7]; log10 conc −8.0 Molar): 99% | GI50 ([8]; Homo sapiens): 7.13 µM | CC50 [8, 17]: > 100 µM | TGI [8]: >1.00E−04 Molar | Percent Growth ([8]; log10 conc −4.0 Molar): 42% | Percent Growth ([8]; log10 conc −5.0 Molar): 47% | Percent Growth ([8]; log10 conc −6.0 Molar): 65% | Percent Growth ([8]; log10 conc −7.0 Molar): 94% | Percent Growth ([8]; log10 conc −8.0 Molar): 112% | GI50 ([9]; Homo sapiens): 3.27 µM | CC50 [9, 17]: > 100 µM | TGI [9]: >1.00E−04 Molar | Percent Growth ([9]; log10 conc −4.0 Molar): 32% | Percent Growth ([9]; log10 conc −5.0 Molar): 44% | Percent Growth ([9]; log10 conc −6.0 Molar): 56% | Percent Growth ([9]; log10 conc −7.0 Molar): 95% | Percent Growth ([9]; log10 conc −8.0 Molar): 99% | GI50 ([10]; Homo sapiens): 0.974 µM | CC50 [10, 17]: > 100 µM | TGI [10]: >1.00E−04 Molar | Percent Growth ([10]; log10 conc −4.0 Molar): 10% | Percent Growth ([10]; log10 conc −5.0 Molar): 16% | Percent Growth ([10]; log10 conc −6.0 Molar): 50% | Percent Growth ([10]; log10 conc −7.0 Molar): 80% | Percent Growth ([10]; log10 conc −8.0 Molar): 98% | TGI [11]: >1.00E−04 Molar | GI50 ([11]; Homo sapiens): 1.37 µM | CC50 [11, 17]: > 100 µM | Percent Growth ([11]; log10 conc −4.0 Molar): 19% | Percent Growth ([11]; log10 conc −5.0 Molar): 30% | Percent Growth ([11]; log10 conc −6.0 Molar): 53% | Percent Growth ([11]; log10 conc −7.0 Molar): 92% | Percent Growth ([11]; log10 conc −8.0 Molar): 102% | TGI ([12]; CARI-1): >1.00E−04 Molar | Percent Growth ([12]; CARI-1, log10 conc −4.0 Molar): 22% | Percent Growth ([12]; CARI-1, log10 conc −5.0 Molar): 40% | Percent Growth ([12]; CARI-1, log10 conc −6.0 Molar): 61% | Percent Growth ([12]; CARI-1, log10 conc −7.0 Molar): 91% | Percent Growth ([12]; CARI-1, log10 conc −8.0 Molar): 94% | GI50 ([12]; Homo sapiens): 3.26 µM | CC50 ([12]; Homo sapiens, CARI-1, read-out: LC50 (the source's name)): > 100 µM | GI50 ([13]; Homo sapiens): 0.501 µM | CC50 [13, 17]: > 100 µM | TGI [13]: 9.10E−06 Molar | Percent Growth ([13]; log10 conc −4.0 Molar): −9% | Percent Growth ([13]; log10 conc −5.0 Molar): −2% | Percent Growth ([13]; log10 conc −6.0 Molar): 40% | Percent Growth ([13]; log10 conc −7.0 Molar): 74% | Percent Growth ([13]; log10 conc −8.0 Molar): 109% | GI50 ([14]; Homo sapiens, MCF7, 48 h): 0.872 µM | CC50 ([14]; Homo sapiens, MCF7, MC-F7, 48 h, read-out: LC50 (the source's name)): > 100 µM | TGI ([14]; MC-F7, 48 h): >1.00E−04 Molar | Percent Growth ([14]; MC-F7, log10 conc −4.0 Molar, 48 h): 8% | Percent Growth ([14]; MC-F7, log10 conc −5.0 Molar, 48 h): 21% | Percent Growth ([14]; MC-F7, log10 conc −6.0 Molar, 48 h): 48% | Percent Growth ([14]; MC-F7, log10 conc −7.0 Molar, 48 h): 88% | Percent Growth ([14]; MC-F7, log10 conc −8.0 Molar, 48 h): 97% | TGI [15]: >1.00E−04 Molar | Percent Growth ([15]; log10 conc −4.0 Molar): 34% | Percent Growth ([15]; log10 conc −5.0 Molar): 46% | Percent Growth ([15]; log10 conc −6.0 Molar): 70% | Percent Growth ([15]; log10 conc −7.0 Molar): 87% | Percent Growth ([15]; log10 conc −8.0 Molar): 98% | GI50 ([15]; Homo sapiens): 6.7 µM | CC50 [15, 17]: > 100 µM | GI50 ([16]; Homo sapiens, T47D): 1.44 µM | CC50 ([16]; Homo sapiens, T47D, T-47D, read-out: LC50 (the source's name)): > 100 µM | TGI ([16]; T-47D): >1.00E−04 Molar | Percent Growth ([16]; T-47D, log10 conc −4.0 Molar): 26% | Percent Growth ([16]; T-47D, log10 conc −5.0 Molar): 21% | Percent Growth ([16]; T-47D, log10 conc −6.0 Molar): 55% | Percent Growth ([16]; T-47D, log10 conc −7.0 Molar): 90% | Percent Growth ([16]; T-47D, log10 conc −8.0 Molar): 95%
